Data as given in EPA's CvTdb concentration-time database.

Key:
[1] = test system: Rat; test: concentration in plasma after dosing
[2] = test system: Rat; test: concentration in brain after dosing; settings: dosed: Perfluorohexane-1-sulphonic acid – potassium salt, 16 mg/kg, oral, Female

O=C(c1ccccc1)c1ccc(O)cc1O [2,4-Dihydroxybenzophenone]
concentration in plasma [ng/mL], [1], dosed: 2-Hydroxy-4-methoxybenzophenone, oral, F344
Settings | 0.25 h | 0.5 h | 2.5 min | 3 h | 4 h | 5 h | 6 h | 10 h | 10 min | 12 h
100 mg/kg, Female | 174 | 145 | 64.3 | 82.3 | 54.2 | 60.3 | – | – | 200 | –
100 mg/kg, Male | 52.2 | 114 | – | 38.2 | 65.6 | 55.8 | – | – | 31 | –
250 mg/kg, Female | 410 | 658 | – | 166 | 157 | – | – | 89.8 | 57.2 | –
250 mg/kg, Male | 109 | 218 | – | 114 | 92.3 | – | – | 91.7 | 39.4 | –
500 mg/kg, Female | 287 | 688 | – | – | 296 | – | – | 242 | 178 | 185
500 mg/kg, Male | 180 | 192 | – | – | 233 | – | 171 | – | 2430 | 246

C=CCc1ccc(OC)c(OC)c1 [Methyleugenol]
concentration in plasma [ng/mL], [1], dosed: Methyleugenol, 37 mg/kg
Settings | Female | Male
0.25 h, iv, F344 | 7960 | 7180
0.5 h, iv, F344 | 2470 | 2440
0.5 h, oral, F344/N | 27.3 | 282
0.75 h, iv, F344 | 1100 | 3230
1 h, oral, F344/N | – | 243
1.5 h, iv, F344 | 684 | 610
1.5 h, oral, F344/N | – | 39.6
2 h, oral, F344/N | – | 17.4
2 min, iv, F344 | 57800 | 32200
2 min, oral, F344/N | 29.2 | 35.1
3 h, iv, F344 | 215 | 232
3 h, oral, F344/N | – | 12.4
4 h, oral, F344/N | – | 17.8
5 h, oral, F344/N | – | 15.6
5 min, iv, F344 | 27400 | 26700
5 min, oral, F344/N | 108 | 81.2
6 h, iv, F344 | – | 175
8 h, oral, F344/N | 17.8 | 6.71
10 min, oral, F344/N | 345 | 369
20 min, oral, F344/N | 267 | 233

O=S(=O)([O-])C(F)(F)C(F)(F)C(F)(F)C(F)(F)C(F)(F)C(F)(F)F.[K+] [Perfluorohexane-1-sulphonic acid – potassium salt]
concentration in brain [ng/g], [2]
Settings | 3 h | 6 h | 12 h | 24 h | 48 h | 192 h | 528 h
F344 | 1890 | 1490 | 2110 | 1460 | – | 847 | 523
Harlan Sprague Dawley | 1170 | 1070 | 951 | 731 | 515 | – | –

concentration in plasma [ng/mL], [1], dosed: Perfluorohexane-1-sulphonic acid – potassium salt, oral, Male, F344
Settings | 0.25 h | 1 h | 3 h | 6 h | 12 h | 24 h | 192 h | 528 h | 864 h | 1200 h
4 mg/kg | 9900 | 23300 | 23900 | 31000 | 30800 | 27400 | 16200 | 11300 | 2510 | 7070
16 mg/kg | – | 73500 | – | – | – | – | – | – | – | –

CCC1(c2ccccc2)C(=O)NCNC1=O [Primidone]
concentration in plasma [ng/mL], [1], dosed: Primidone, oral
Settings | 0.25 h | 0.5 h | 1.5 h | 3 h | 6 h | 9 h | 12 h | 18 h | 22 h
30 mg/kg, Female, F344 | 18100 | – | 23900 | 24900 | 11900 | 5700 | 2200 | 500 | –
30 mg/kg, Male, F344 | 8900 | – | 10000 | 6700 | 500 | – | – | – | –
80 mg/kg, Female, F344 | 16900 | 40000 | 48800 | 75900 | 36400 | 23400 | 12600 | 3600 | 400
80 mg/kg, Female, Harlan Sprague-Dawley | 9900 | 27200 | – | – | – | – | 1500 | – | –
80 mg/kg, Male, F344 | – | – | 34700 | 37100 | 14000 | 4000 | – | – | –
130 mg/kg, Female, F344 | – | 19600 | 78900 | 53300 | 24600 | 53800 | 5500 | – | 100
130 mg/kg, Female, Harlan Sprague-Dawley | – | – | 51900 | – | – | – | – | – | –
130 mg/kg, Male, F344 | – | – | 51500 | – | 22800 | 9000 | – | – | –
130 mg/kg, Male, Harlan Sprague Dawley | – | 55100 | – | 100000 | – | – | 22300 | – | –
